Where “and” joins values, the source holds several entries; their conditions need not be identical. Equal entries are not always repeated. Numbers after ± are expanded uncertainties.
Assays:
[1] = Liquid; for viscosity: Concentric cylinders viscometry; for mass density: Vibrating tube method
[2] = refractive index (Na D-line) (dimensionless); settings: 101.33 kPa, Liquid, Standard Abbe refractometry
[3] = xn = mol fraction of the nth substance listed; settings: 100 kPa, Liquid, x2 = 0; for viscosity: Concentric cylinders viscometry; for mass density: Vibrating tube method
[4] = refractive index (Na D-line) (dimensionless); xn = mol fraction of the nth substance listed; settings: 100 kPa, Liquid, Standard Abbe refractometry, x2 = 0

Compound CCCCO [butan-1-ol] has a viscosity ([1]; 288.15 K, 100 kPa) of 3.375 ± 0.017 mPa·s, a mass density ([1]; 288.15 K, 100 kPa) of 813.373 ± 0.16 kg/m3 and a viscosity ([1]; 293.15 K, 100 kPa) of 2.945 ± 0.015 mPa·s. The mass density ([1]; 293.15 K, 100 kPa) was 809.573 ± 0.16 kg/m3, the viscosity ([1]; 298.15 K, 100 kPa) was 2.581 ± 0.014 mPa·s and the mass density ([1]; 298.15 K, 100 kPa) was 805.762 ± 0.16 kg/m3. For the same compound, the viscosity ([1]; 303.15 K, 100 kPa) was 2.272 ± 0.013 mPa·s, the mass density ([1]; 303.15 K, 100 kPa) was 801.923 ± 0.16 kg/m3 and the viscosity ([1]; 308.15 K, 100 kPa) was 2.008 ± 0.012 mPa·s. The mass density ([1]; 308.15 K, 100 kPa) was 798.053 ± 0.16 kg/m3, the viscosity ([1]; 313.15 K, 100 kPa) was 1.782 ± 0.011 mPa·s and the mass density ([1]; 313.15 K, 100 kPa) was 794.147 ± 0.17 kg/m3. For the same compound, the viscosity ([1]; 318.15 K, 100 kPa) was 1.587 ± 0.011 mPa·s, the mass density ([1]; 318.15 K, 100 kPa) was 790.231 ± 0.17 kg/m3 and the viscosity ([1]; 323.15 K, 100 kPa) was 1.419 ± 0.01 mPa·s. For the same compound, the mass density ([1]; 323.15 K, 100 kPa) was 786.238 ± 0.17 kg/m3, the refractive index ([2]; 288.15 K) was 1.40135 ± 0.00036 and the refractive index ([2]; 293.15 K) was 1.39932 ± 0.00036. The refractive index ([2]; 298.15 K) was 1.3973 ± 0.00036, the refractive index ([2]; 303.15 K) was 1.39523 ± 0.00036 and the refractive index ([2]; 308.15 K) was 1.39318 ± 0.00036. It also gave a refractive index ([2]; 313.15 K) of 1.3911 ± 0.00036, a refractive index ([2]; 318.15 K) of 1.38901 ± 0.00036 and a refractive index ([2]; 323.15 K) of 1.38688 ± 0.00036.

CCCCO [butan-1-ol] + CCC(C)=O showed a viscosity ([3]; 288.15 K) of 3.375 ± 0.017 mPa·s, a mass density ([3]; 288.15 K) of 813.373 ± 0.16 kg/m3 and a viscosity ([3]; 293.15 K) of 2.945 ± 0.015 mPa·s. For the same compound, the mass density ([3]; 293.15 K) was 809.573 ± 0.16 kg/m3, the viscosity ([3]; 298.15 K) was 2.581 ± 0.014 mPa·s and the mass density ([3]; 298.15 K) was 805.762 ± 0.16 kg/m3. For the same compound, the viscosity ([3]; 303.15 K) was 2.272 ± 0.013 mPa·s, the mass density ([3]; 303.15 K) was 801.923 ± 0.16 kg/m3 and the viscosity ([3]; 308.15 K) was 2.008 ± 0.012 mPa·s. The mass density ([3]; 308.15 K) was 798.053 ± 0.16 kg/m3, the viscosity ([3]; 313.15 K) was 1.782 ± 0.011 mPa·s and the mass density ([3]; 313.15 K) was 794.147 ± 0.17 kg/m3. For the same compound, the viscosity ([3]; 318.15 K) was 1.587 ± 0.011 mPa·s, the mass density ([3]; 318.15 K) was 790.231 ± 0.17 kg/m3 and the viscosity ([3]; 323.15 K) was 1.419 ± 0.01 mPa·s. The mass density ([3]; 323.15 K) was 786.238 ± 0.17 kg/m3, the refractive index ([4]; 288.15 K) was 1.40135 ± 0.00036 and the refractive index ([4]; 293.15 K) was 1.39932 ± 0.00036. For the same compound, the refractive index ([4]; 298.15 K) was 1.3973 ± 0.00036, the refractive index ([4]; 303.15 K) was 1.39523 ± 0.00036 and the refractive index ([4]; 308.15 K) was 1.39318 ± 0.00036. For the same compound, the refractive index ([4]; 313.15 K) was 1.3911 ± 0.00036, the refractive index ([4]; 318.15 K) was 1.38901 ± 0.00036 and the refractive index ([4]; 323.15 K) was 1.38688 ± 0.00036.

For CCC(C)=O [butanone], the viscosity ([1]; 288.15 K, 100 kPa) was 0.4306 ± 0.0077 mPa·s and 0.4306 ± 0.008 mPa·s, the mass density ([1]; 288.15 K, 100 kPa) was 810.133 ± 0.24 kg/m3 and the viscosity ([1]; 293.15 K, 100 kPa) was 0.4136 ± 0.0077 mPa·s and 0.4136 ± 0.0079 mPa·s. The mass density ([1]; 293.15 K, 100 kPa) was 804.926 ± 0.24 kg/m3, the viscosity ([1]; 298.15 K, 100 kPa) was 0.3962 ± 0.0078 mPa·s and 0.3962 ± 0.0077 mPa·s and the mass density ([1]; 298.15 K, 100 kPa) was 799.695 ± 0.24 kg/m3. For the same compound, the viscosity ([1]; 303.15 K, 100 kPa) was 0.3793 ± 0.0078 mPa·s and 0.3793 ± 0.0076 mPa·s, the mass density ([1]; 303.15 K, 100 kPa) was 794.435 ± 0.24 kg/m3 and the viscosity ([1]; 308.15 K, 100 kPa) was 0.3626 ± 0.0078 mPa·s and 0.3626 ± 0.0076 mPa·s. The mass density ([1]; 308.15 K, 100 kPa) was 789.142 ± 0.24 kg/m3, the viscosity ([1]; 313.15 K, 100 kPa) was 0.3461 ± 0.0077 mPa·s and 0.3461 ± 0.0076 mPa·s and the mass density ([1]; 313.15 K, 100 kPa) was 783.814 ± 0.24 kg/m3. For the same compound, the viscosity ([1]; 318.15 K, 100 kPa) was 0.3303 ± 0.0077 mPa·s and 0.3303 ± 0.0075 mPa·s, the mass density ([1]; 318.15 K, 100 kPa) was 778.451 ± 0.24 kg/m3 and the viscosity ([1]; 323.15 K, 100 kPa) was 0.3168 ± 0.0076 mPa·s and 0.3167 ± 0.0075 mPa·s. It also gave a mass density ([1]; 323.15 K, 100 kPa) of 773.047 ± 0.24 kg/m3, a refractive index ([2]; 288.15 K) of 1.38153 ± 0.0004 and a refractive index ([2]; 293.15 K) of 1.37892 ± 0.0004. The refractive index ([2]; 298.15 K) was 1.37631 ± 0.0004, the refractive index ([2]; 303.15 K) was 1.37366 ± 0.0004 and the refractive index ([2]; 308.15 K) was 1.37102 ± 0.0004. For the same compound, the refractive index ([2]; 313.15 K) was 1.36834 ± 0.0004, the refractive index ([2]; 318.15 K) was 1.36565 ± 0.0004 and the refractive index ([2]; 323.15 K) was 1.36294 ± 0.0004.

For CCC(C)=O [butanone] + COC(=O)CCCCC(=O)OC, the viscosity ([3]; 288.15 K) was 0.4306 ± 0.0077 mPa·s, the viscosity ([3]; 293.15 K) was 0.4136 ± 0.0077 mPa·s and the viscosity ([3]; 298.15 K) was 0.3962 ± 0.0077 mPa·s. The viscosity ([3]; 303.15 K) was 0.3793 ± 0.0076 mPa·s, the viscosity ([3]; 308.15 K) was 0.3626 ± 0.0076 mPa·s and the viscosity ([3]; 313.15 K) was 0.3461 ± 0.0076 mPa·s. It also gave a viscosity ([3]; 318.15 K) of 0.3303 ± 0.0075 mPa·s and a viscosity ([3]; 323.15 K) of 0.3167 ± 0.0075 mPa·s.

For COC(=O)CCCCC(=O)OC [dimethyl 1,6-hexanedioate], the viscosity ([1]; 288.15 K, 100 kPa) was 3.751 ± 0.024 mPa·s, the viscosity ([1]; 293.15 K, 100 kPa) was 3.289 ± 0.022 mPa·s and the mass density ([1]; 293.15 K, 101.33 kPa) was 1061.93 ± 0.28 kg/m3. It also gave a viscosity ([1]; 298.15 K, 100 kPa) of 2.91 ± 0.02 mPa·s, a viscosity ([1]; 303.15 K, 100 kPa) of 2.604 ± 0.018 mPa·s and a viscosity ([1]; 308.15 K, 100 kPa) of 2.342 ± 0.017 mPa·s. For the same compound, the viscosity ([1]; 313.15 K, 100 kPa) was 2.121 ± 0.015 mPa·s, the viscosity ([1]; 318.15 K, 100 kPa) was 1.933 ± 0.015 mPa·s and the viscosity ([1]; 323.15 K, 100 kPa) was 1.79 ± 0.014 mPa·s. For the same compound, the refractive index ([2]; 298.15 K) was 1.4264 ± 0.0004.
